Assay results from the supplement of paper PMC8149375.

Experiments:
Settings in all cases: treatment: drug alone; 5 days
[1] = test system: CAKI-1; experiment: minimum viability across doses, drug alone, relative to DMSO (fraction); higher = less growth inhibition
Method: (§1)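 Primary HTS: 8 RCC cell lines treated with 8 doses (up to 10 uM) of each library drug alone for 5 days; viability read by CellTiter-Glo and normalised to DMSO. GI50 was fitted with XLfit (4-parameter), AUC is the area under the dose-response curve, and minimum viability is the lowest fraction of DMSO viability across doses.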

[2] = test system: UO-31; experiment: as above
Method: as §1

[3] = test system: A498; experiment: as above
Method: as §1

[4] = test system: 786-O; experiment: as above
Method: as §1

[5] = test system: SN12C; experiment: as above
Method: as §1

[6] = test system: TK-10; experiment: as above
Method: as §1

[7] = test system: ACHN; experiment: as above
Method: as §1

[8] = test system: 769-P; experiment: as above
Method: as §1

[9] = test system: CAKI-1; experiment: GI50, drug alone; higher = less potent
Method: as §1

[10] = test system: UO-31; experiment: GI50, drug alone; higher = less potent
Method: as §1

[11] = test system: A498; experiment: GI50, drug alone; higher = less potent
Method: as §1

[12] = test system: 786-O; experiment: GI50, drug alone; higher = less potent
Method: as §1

[13] = test system: SN12C; experiment: GI50, drug alone; higher = less potent
Method: as §1

[14] = test system: TK-10; experiment: GI50, drug alone; higher = less potent
Method: as §1

[15] = test system: ACHN; experiment: GI50, drug alone; higher = less potent
Method: as §1

[16] = test system: 769-P; experiment: GI50, drug alone; higher = less potent
Method: as §1

[17] = test system: CAKI-1; experiment: AUC of dose-response viability curve, drug alone (arbitrary (AUC of normalised viability)); higher = less growth inhibition
Method: as §1

[18] = test system: UO-31; experiment: as above
Method: as §1

[19] = test system: A498; experiment: as above
Method: as §1

[20] = test system: 786-O; experiment: as above
Method: as §1

[21] = test system: SN12C; experiment: as above
Method: as §1

[22] = test system: TK-10; experiment: as above
Method: as §1

[23] = test system: ACHN; experiment: as above
Method: as §1

[24] = test system: 769-P; experiment: as above
Method: as §1

Structure (SMILES) | minimum viability across doses [1] | minimum viability across doses [2] | minimum viability across doses [3] | minimum viability across doses [4] | minimum viability across doses [5] | minimum viability across doses [6] | minimum viability across doses [7] | minimum viability across doses [8] | GI50, drug alone [9] | GI50, drug alone [10] | GI50, drug alone [11] | GI50, drug alone [12] | GI50, drug alone [13] | GI50, drug alone [14] | GI50, drug alone [15] | GI50, drug alone [16] | AUC of dose-response viability curve [17] | AUC of dose-response viability curve [18] | AUC of dose-response viability curve [19] | AUC of dose-response viability curve [20] | AUC of dose-response viability curve [21] | AUC of dose-response viability curve [22] | AUC of dose-response viability curve [23] | AUC of dose-response viability curve [24]
Cc1cn(-c2cc(NC(=O)c3ccc(C)c(Nc4nccc(-c5cccnc5)n4)c3)cc(C(F)(F)F)c2)cn1 [Nilotinib (AMN-107)] | 0.763 | 0.654 | 0.788 | 0.827 | 0.877 | 0.56 | 0.797 | 0.93 | > 10000 nM | > 10000 nM | > 10000 nM | > 10000 nM | > 10000 nM | > 10000 nM | > 10000 nM | > 10000 nM | 3.76 | 4.08 | 4.05 | 3.8 | 3.37 | 2.96 | 3.32 | 3.46
COc1ccc(C2=NC(c3ccc(Cl)cc3)C(c3ccc(Cl)cc3)N2C(=O)N2CCNC(=O)C2)c(OC(C)C)c1 (stereo not drawn) [Nutlin-3] | 0.383 | 0.99 | 0.914 | 0.756 | 0.846 | 0.805 | 0.278 | 0.677 | 8040 nM | > 10000 nM | > 10000 nM | > 10000 nM | > 10000 nM | > 10000 nM | 5640 nM | > 10000 nM | 3.34 | 4.29 | 3.9 | 3.29 | 3.31 | 2.99 | 2.82 | 3.42
COc1cccc2cc(-c3nc([C@H]4CC[C@H](C(=O)O)CC4)n4ncnc(N)c34)[nH]c12 [OSI-027] | 0.0475 | 0.00484 | 0.148 | 0.185 | 0.168 | 0.191 | 0.105 | 0.408 | 1170 nM | 2520 nM | 9270 nM | 1660 nM | 2390 nM | 1930 nM | 1910 nM | 8490 nM | 2.58 | 3.1 | 3.75 | 2.49 | 2.77 | 2.64 | 2.85 | 3.12
C#Cc1cccc(Nc2ncnc3cc(OCCOC)c(OCCO)cc23)c1.Cl [OSI-420 (Desmethyl Erlotinib)] | 0.159 | 0.906 | 0.92 | 0.443 | 0.6 | 0.416 | 0.101 | 0.36 | 3010 nM | > 10000 nM | > 10000 nM | 101 nM | > 10000 nM | 2420 nM | 827 nM | 3590 nM | 2.79 | 3.38 | 3.79 | 2.49 | 2.95 | 2.29 | 2.38 | 2.69
O=C(Nc1ccc(OC(F)(F)F)cc1)c1sccc1NCc1ccnc2ccccc12 [OSI-930] | 0.264 | 0.173 | 0.722 | 0.372 | 0.158 | 0.572 | 0.175 | 0.871 | 8110 nM | 1350 nM | > 10000 nM | 7470 nM | 8320 nM | > 10000 nM | 5420 nM | > 10000 nM | 3.63 | 3.46 | 3.58 | 2.81 | 3.5 | 3.23 | 3.25 | 3.39
COC1=CC(c2cc3ccccc3[nH]2)=N/C1=C\c1[nH]c(C)cc1C.CS(=O)(=O)O [Obatoclax mesylate (GX15-070)] | 0.011 | 0.00526 | 0.00496 | 0.0051 | 0.00313 | 0.17 | 0.0118 | 0.0323 | 379 nM | 158 nM | 438 nM | 7.53 nM | 213 nM | 185 nM | 81.1 nM | 309 nM | 2.23 | 2.07 | 1.95 | 0.668 | 1.74 | 1.79 | 1.41 | 2.01
C=CCc1cccc(/C=N/NC(=O)CN2CCN(Cc3ccccc3)CC2)c1O [PAC-1] | 0.117 | 0.0166 | 0.368 | 0.00713 | 0.138 | 0.0835 | 0.0162 | 0.0295 | 3230 nM | 1700 nM | 8780 nM | 610 nM | 3350 nM | 1620 nM | 740 nM | 2320 nM | 3.2 | 3.29 | 3.43 | 2.18 | 3.01 | 2.69 | 2.23 | 2.94
CCCCCCCCCCCCc1ccc(S(=O)(=O)Nc2nncs2)cc1 [PHT-427] | 0.959 | 1.14 | 1.05 | 0.512 | 0.858 | 0.797 | 0.824 | 0.855 | > 10000 nM | > 10000 nM | > 10000 nM | > 10000 nM | > 10000 nM | > 10000 nM | > 10000 nM | > 10000 nM | 3.62 | 4.78 | 4.29 | 2.32 | 3.22 | 2.94 | 3.08 | 3.26
Oc1cccc(-c2nc(N3CCOCC3)c3oc4ncccc4c3n2)c1 [PI-103] | 0.0544 | 0.0085 | 0.0881 | 0.00638 | 0.118 | 0.136 | 0.119 | 0.0599 | 858 nM | 339 nM | 584 nM | 355 nM | 360 nM | 527 nM | 286 nM | 1360 nM | 2.37 | 1.8 | 2.26 | 2 | 1.91 | 2.15 | 2.08 | 2.53
Cc1ccc([N+](=O)[O-])cc1S(=O)(=O)N(C)/N=C/c1cnc2ccc(Br)cn12.Cl [PIK-75] | 0.0354 | 0.00672 | 0.0119 | 0.00345 | 0.00713 | 0.121 | 0.00398 | 0.0087 | 25.8 nM | 84 nM | 82.1 nM | 40.2 nM | 70 nM | 70.5 nM | 30.1 nM | 117 nM | 0.988 | 1.71 | 1.5 | 1.09 | 1.33 | 1.56 | 1.01 | 1.61
COc1ccc2c(c1OC)N=C(NC(=O)c1cccnc1)N1CCN=C21 [PIK-90] | 0.358 | 0.822 | 1.02 | 0.53 | 0.175 | 0.616 | 0.655 | 0.693 | 3060 nM | > 10000 nM | > 10000 nM | > 10000 nM | 3410 nM | > 10000 nM | > 10000 nM | > 10000 nM | 2.42 | 3.42 | 3.98 | 2.46 | 2.7 | 2.75 | 3.1 | 3.07
CC(=O)Nc1nc(C)c(-c2ccc(Cl)c(S(=O)(=O)NCCO)c2)s1 [PIK-93] | 0.287 | 1.15 | 0.8 | 0.202 | 0.434 | 0.377 | 0.408 | 0.565 | 5070 nM | > 10000 nM | > 10000 nM | 746 nM | 8030 nM | 8010 nM | 7460 nM | > 10000 nM | 3.11 | 4.68 | 4.19 | 1.86 | 2.98 | 2.74 | 3.14 | 3.19
Cc1ccccc1-n1c(Cn2ncc3c(N)ncnc32)nc2cccc(C)c2c1=O [PIK-293] | 0.902 | 1.2 | 0.982 | 0.581 | 0.837 | 0.734 | 0.928 | 0.949 | > 10000 nM | > 10000 nM | > 10000 nM | > 10000 nM | > 10000 nM | > 10000 nM | > 10000 nM | > 10000 nM | 3.46 | 4.72 | 3.9 | 2.42 | 3.16 | 3.07 | 3.53 | 3.49
CCn1nnc2c(N3CCOCC3)nc(-c3ccc(NC(=O)Nc4ccc(C(=O)N5CCN(C)CC5)cc4)cc3)nc21 [PKI-402] | 0.0473 | 0.0165 | 0.156 | 0.00561 | 0.118 | 0.0487 | 0.0633 | 0.102 | 241 nM | 162 nM | 165 nM | 117 nM | 99.1 nM | 179 nM | 224 nM | 1140 nM | 1.91 | 1.99 | 2.25 | 1.66 | 1.66 | 1.71 | 1.89 | 2.51
CCCS(=O)(=O)Nc1ccc(F)c(C(=O)c2c[nH]c3ncc(Cl)cc23)c1F [PLX-4720] | 0.278 | 0.944 | 0.885 | 0.335 | 0.875 | 0.574 | 0.197 | 0.817 | 7550 nM | > 10000 nM | > 10000 nM | 4860 nM | > 10000 nM | > 10000 nM | 2460 nM | > 10000 nM | 3.33 | 4.19 | 4.12 | 2.5 | 3.44 | 3.13 | 2.57 | 3.18
CC(C)n1nc(-c2cc3cc(O)ccc3[nH]2)c2c(N)ncnc21 [PP242] | 0.0389 | 0.00829 | 0.0519 | 0.00205 | 0.0949 | 0.0788 | 0.05 | 0.0576 | 523 nM | 4100 nM | 2910 nM | 1300 nM | 677 nM | 522 nM | 348 nM | 1550 nM | 2.12 | 3.42 | 2.93 | 2.02 | 2.23 | 2.12 | 2.07 | 2.56
Nc1ncnc2c1c(-c1cnc3[nH]ccc3c1)nn2C1CCCC1 [PP-121] | 0.00982 | 0.0162 | 0.0928 | 0.00427 | 0.0559 | 0.0113 | 0.0162 | 0.0337 | 583 nM | 1530 nM | 2730 nM | 429 nM | 1040 nM | 415 nM | 455 nM | 1350 nM | 2.37 | 3.41 | 3.11 | 2.13 | 2.54 | 2.1 | 2.23 | 2.53
